Reference: paper PMC6567565, “Modulation of neurological pathways by Salvia officinalis and its dependence on manufacturing process and plant parts used” (BMC Complementary and Alternative Medicine, 2019)
Counter-ions that a name gives are not always drawn.

Key:
[1] = target: benzodiazepine site of the GABAA receptor; test: GABAA-benzodiazepine site binding assay ([3H]-Ro-15-1788); details: reference compound
Procedure: The GABAA-benzodiazepine site binding assay was performed as described by Mehta and Shank [28], with minor modifications. Membranes were incubated for 30 min at 22 °C in 50 mM Tris-HCl (pH 7.4) and 100 mM NaCl with 1 nM [^3H]-Ro-15-1788. Non-specific binding was determined with 10 μM diazepam.
From every data point non-specific binding was subtracted and data normalized (100% specific binding represents the specific binding of the radioligand to the binding site of the receptor in the absence of any effector).

[2] = target: human serotonin transporters; parameters: method as in ref 33 (Tatsumi et al.); details: [3H]-imipramine binding; ref 33 (Tatsumi et al.); cited from earlier work
AChE = system: AChE; parameters: method as in ref 31 (Kishibayashi et al.); details: ref 31 (Kishibayashi et al.); cited from earlier work
[3] = target: human serotonin 5-HT2C(e) receptors; test: serotonin 5-HT2C(e) receptor binding assay ([3H]-mesulergine); details: reference compound
Procedure: (§1) The serotonin 5-HT2C(e) receptor binding assay was performed according to the data sheet provided by the supplier of the receptor preparation, with modifications. The receptor preparation was incubated for 120 min at 37 °C in 50 mM Tris-HCl (pH 7.4), 0.1% ascorbic acid and 10 μM pargyline with 0.5 nM [N^6-methyl-^3H]-mesulergine in the dark.
All assays were terminated by transfer of the samples onto filter plates (PerkinElmer or Whatman), presoaked in assaybuffer (GABAA, GABAB, alpha2A and muscarinic M3), treated with 0.5% BSA (μ-opioid), presoaked with 0.5% polyethyleneimine (5-HT2B, 5-HT2C(e)), or presoaked with 0.1% polyethyleneimine (5-HT1A, 5-HTT). Filters were washed four times with 200 μl of ice-cold 50 mM Tris-HCl pH 7.4 (GABAA, GABAB, Alpha2A, 5-HT1A, 5-HT2B 5-HT2C(e), μ-opioid, and muscarinic M3) or 50 mM Tris-HCl pH 7.4/0.5 M NaCl (5-HTT), and filter-bound radioactivity was determined by a microplate reader (Microbeta, Wallac, Finnland). […]
The IC50 value (concentration causing half-maximal inhibition of specific binding) was determined by non-linear regression analysis of the competition curves using the “sigmoidal dose-response” algorithm (GraphPad Prism, San Diego, USA). […]

[4] = target: serotonin 5-HT2C receptor; test: [3H]-mesulergine binding in native female hypothalami preparation; parameters: species or system human; details: reference compound
Procedure: Human frozen hypothalami were from a healthy person and a healthy person (Tissue Solutions Ltd., Glasgow, UK). The tissue was minced in 20 ml 10 mM HEPES pH 7.4, 1 mM EDTA on ice with a disperger (20 s at 28 Trpm) and centrifuged for 15 min at 31,600×g at 4 °C. The pellet was homogenized (10 strokes with a glass-teflon homogenizer, 2000 rounds per minute) at 4 °C and again centrifuged. The latter procedure was repeated once and the pellet finally resupended in 50 mM HEPES pH 7.4, 4 mM MgCl2, and 1 mM EDTA; frozen in liquid nitrogen; and stored at − 80 °C until usage.
as §1
In membranes from human native female hypothalami, no specific binding of the radioligand for the 5-HT1A, [^3H]-8-OH-DPAT, could be observed, indicating the absence of the serotonin 5-HT1A receptor at least in the investigated preparation.

Molecule CN1C(=O)CN=C(c2ccccc2)c2cc(Cl)ccc21 [diazepam] has an IC50 [1] of 39 nM.
For CN(C)CCCN1c2ccccc2CCc2ccccc21 [imipramine, Imipramine hydrochloride], the Kd [2] is given as 1.4 nM.
For CN(C)C(=O)Oc1cccc([N+](C)(C)C)c1 [neostigmine], the IC50 (AChE) is given as 36 nM.
For O=C1Nc2cc(Cl)c(Cl)cc2N2CCNCC12 (centres unmarked) [WAY 161503, WAY 161503 hydrochloride], the IC50 [3] was 163 nM and the IC50 [4] was 347 nM.
